According to patent US11427558B1, “Indazoles and azaindazoles as LRRK2 inhibitors” (ESCAPE Bio, Inc., priority 2019, dated 2022):

What was measured:
[1] = target: Recombinant wild type LRRK2 protein (Homo sapiens (Human), UniProt Q5S007); test: LRRK2 kinase activity, LanthaScreen TR-FRET assay (wild type); assay type: biochemical; conditions: LRRKtide 400 nM, 25 μM ATP, 60 min; read-out: LRRK2 WT IC50
Method in brief: (§1)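 Recombinant human wild-type or G2019S LRRK2 phosphorylated fluorescein-labelled LRRKtide (ERM-based) with ATP and serially diluted compound for 60 min at room temperature.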

[2] = target: Recombinant G2019S-LRRK2 protein (Homo sapiens (Human), UniProt Q5S007, G2019S); test: LRRK2 kinase activity, LanthaScreen TR-FRET assay (G2019S); assay type: biochemical; conditions: LRRKtide 400 nM, 25 μM ATP, 60 min
Method in brief: as §1

Sequence of Recombinant G2019S-LRRK2 protein (Q5S007 whole entry G2019S): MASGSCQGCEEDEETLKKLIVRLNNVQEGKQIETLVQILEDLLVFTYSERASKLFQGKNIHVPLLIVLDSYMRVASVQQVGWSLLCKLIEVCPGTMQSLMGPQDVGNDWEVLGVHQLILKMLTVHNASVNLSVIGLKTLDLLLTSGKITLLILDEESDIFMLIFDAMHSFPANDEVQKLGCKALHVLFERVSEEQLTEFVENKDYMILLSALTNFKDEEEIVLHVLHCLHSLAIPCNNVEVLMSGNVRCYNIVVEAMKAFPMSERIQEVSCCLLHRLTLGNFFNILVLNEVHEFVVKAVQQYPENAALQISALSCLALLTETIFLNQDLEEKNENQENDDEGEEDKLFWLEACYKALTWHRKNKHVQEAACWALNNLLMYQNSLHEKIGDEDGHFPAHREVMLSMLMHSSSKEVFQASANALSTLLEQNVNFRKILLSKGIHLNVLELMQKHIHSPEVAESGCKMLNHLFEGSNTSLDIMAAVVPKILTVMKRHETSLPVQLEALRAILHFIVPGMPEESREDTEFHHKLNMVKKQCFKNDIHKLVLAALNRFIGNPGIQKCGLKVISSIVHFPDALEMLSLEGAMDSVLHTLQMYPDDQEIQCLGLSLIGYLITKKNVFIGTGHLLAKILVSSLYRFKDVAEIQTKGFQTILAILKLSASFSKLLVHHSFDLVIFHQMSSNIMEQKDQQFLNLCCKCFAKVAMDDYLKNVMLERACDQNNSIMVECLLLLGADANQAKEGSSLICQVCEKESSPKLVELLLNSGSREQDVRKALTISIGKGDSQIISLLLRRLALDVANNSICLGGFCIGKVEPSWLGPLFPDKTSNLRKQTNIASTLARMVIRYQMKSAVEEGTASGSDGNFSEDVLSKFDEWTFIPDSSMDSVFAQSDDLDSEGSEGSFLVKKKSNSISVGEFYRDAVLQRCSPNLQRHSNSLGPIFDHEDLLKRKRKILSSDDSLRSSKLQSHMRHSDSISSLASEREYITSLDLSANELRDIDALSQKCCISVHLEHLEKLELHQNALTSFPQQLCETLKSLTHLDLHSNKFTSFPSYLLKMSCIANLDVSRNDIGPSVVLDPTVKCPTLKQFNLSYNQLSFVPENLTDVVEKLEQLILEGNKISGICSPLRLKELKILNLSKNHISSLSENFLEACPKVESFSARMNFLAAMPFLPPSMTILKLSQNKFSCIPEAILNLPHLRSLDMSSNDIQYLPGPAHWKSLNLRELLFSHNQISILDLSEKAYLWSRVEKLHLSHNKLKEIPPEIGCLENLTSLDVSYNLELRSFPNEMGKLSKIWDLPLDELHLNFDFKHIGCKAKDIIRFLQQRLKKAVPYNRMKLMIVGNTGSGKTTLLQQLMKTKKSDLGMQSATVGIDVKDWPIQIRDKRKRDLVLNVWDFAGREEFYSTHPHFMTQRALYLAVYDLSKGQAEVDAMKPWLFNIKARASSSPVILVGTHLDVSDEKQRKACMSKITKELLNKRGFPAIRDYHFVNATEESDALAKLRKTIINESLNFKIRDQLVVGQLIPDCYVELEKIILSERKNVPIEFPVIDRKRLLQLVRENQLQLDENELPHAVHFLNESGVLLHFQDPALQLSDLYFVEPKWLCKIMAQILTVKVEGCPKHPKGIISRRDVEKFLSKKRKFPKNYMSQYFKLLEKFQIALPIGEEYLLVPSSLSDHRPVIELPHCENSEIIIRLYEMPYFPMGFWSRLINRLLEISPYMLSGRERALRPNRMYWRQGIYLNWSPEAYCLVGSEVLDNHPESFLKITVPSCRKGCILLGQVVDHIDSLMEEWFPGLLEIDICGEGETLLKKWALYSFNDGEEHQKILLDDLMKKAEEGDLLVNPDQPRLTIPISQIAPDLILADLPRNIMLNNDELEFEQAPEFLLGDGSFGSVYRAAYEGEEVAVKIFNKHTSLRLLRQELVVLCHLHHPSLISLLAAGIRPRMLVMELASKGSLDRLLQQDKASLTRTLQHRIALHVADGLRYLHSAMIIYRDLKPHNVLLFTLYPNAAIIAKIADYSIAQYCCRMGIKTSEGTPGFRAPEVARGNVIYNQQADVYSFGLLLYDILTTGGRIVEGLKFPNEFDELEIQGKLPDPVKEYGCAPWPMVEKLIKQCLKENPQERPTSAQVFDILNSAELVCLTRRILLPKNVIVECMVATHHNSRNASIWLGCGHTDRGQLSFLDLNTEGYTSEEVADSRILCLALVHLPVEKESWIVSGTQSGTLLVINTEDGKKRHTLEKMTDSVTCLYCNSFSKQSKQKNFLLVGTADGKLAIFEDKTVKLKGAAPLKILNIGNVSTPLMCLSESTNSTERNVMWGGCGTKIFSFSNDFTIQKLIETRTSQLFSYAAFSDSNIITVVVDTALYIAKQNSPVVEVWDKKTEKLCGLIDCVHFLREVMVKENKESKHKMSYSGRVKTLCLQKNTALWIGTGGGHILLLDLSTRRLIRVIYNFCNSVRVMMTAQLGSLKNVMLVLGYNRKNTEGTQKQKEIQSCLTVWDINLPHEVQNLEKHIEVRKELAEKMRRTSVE
Sequence of Recombinant wild type LRRK2 protein (Q5S007 whole entry): as the sequence (Q5S007 whole entry G2019S) above, with S2019G counted along it

| SMILES | IC50 [1] [nM] | IC50 [2] [nM] |
| --- | --- | --- |
| CCc1cc(-c2n[nH]c3ccc(NC(=O)c4ncc(C#N)c(C)c4C)cc23)ccn1 [Example 279, 5-Cyano-N-(3-(2-ethylpyridin-4-yl)-1H-indazol-5-yl)-3,4-dimethylpicolinamide] | < 100 | < 100 |
| Cc1c(C#N)cnc(C(=O)Nc2ccc3[nH]nc(-c4cccn(C)c4=O)c3c2)c1C [Example 280, 5-Cyano-3,4-dimethyl-N-(3-(1-methyl-2-oxo-1,2-dihydropyridin-3-yl)-1H-indazol-5-yl)picolinamide] | 1000 to 10000 | 1000 to 10000 |
| Cc1c(C#N)cnc(C(=O)Nc2ccc3[nH]nc(/C=C/c4ccncc4)c3c2)c1C [Example 281, (E)-5-Cyano-3,4-dimethyl-N-(3-(2-(pyridin-4-yl)vinyl)-1H-indazol-5-yl)picolinamide] | < 100 | < 100 |
| C/C=C/c1n[nH]c2ccc(NC(=O)c3nc(Cl)c(C#N)c(C)c3C)cc12 [Example 282, (E)-6-chloro-5-cyano-3,4-dimethyl-N-(3-(prop-1-en-1-yl)-1H-indazol-5-yl)picolinamide] | < 100 | < 100 |
| Cc1nc(C(=O)Nc2ccc3[nH]nc(C4CC4)c3c2)c(Cl)c(C)c1C#N [Example 283, 3-chloro-5-cyano-N-(3-cyclopropyl-1H-indazol-5-yl)-4,6-dimethylpicolinamide] | 100 to 1000 | < 100 |
| CCc1n[nH]c2ccc(NC(=O)c3ncc(C#N)c(C(F)(F)F)c3C)cc12 [Example 284, 5-Cyano-N-(3-ethyl-1H-indazol-5-yl)-3-methyl-4-(trifluoromethyl)picolinamide] | 1000 to 10000 | < 100 |
| COc1n[nH]c2ccc(NC(=O)c3ncc(C#N)c(C(F)(F)F)c3C)cc12 [Example 285, 5-Cyano-N-(3-methoxy-1H-indazol-5-yl)-3-methyl-4-(trifluoromethyl)picolinamide] | 1000 to 10000 | < 100 |
| Cc1c(C(=O)Nc2ccc3[nH]nc(C4CC4)c3c2)ncc(C#N)c1C(F)(F)F [Example 286, 5-Cyano-N-(3-cyclopropyl-1H-indazol-5-yl)-3-methyl-4-(trifluoromethyl)picolinamide] | 1000 to 10000 | < 100 |
| COc1n[nH]c2ccc(NC(=O)c3nc(C)c(C#N)c(C)c3C)cc12 [Example 287, 5-Cyano-N-(3-methoxy-1H-indazol-5-yl)-3,4,6-trimethylpicolinamide] | 100 to 1000 | < 100 |
| Cc1cc(C#N)c(C(F)(F)F)nc1C(=O)Nc1ccc2[nH]nc(-c3cnco3)c2c1 [Example 288, 5-Cyano-3-methyl-N-(3-(oxazol-5-yl)-1H-indazol-5-yl)-6-(trifluoromethyl)picolinamide] | < 100 | < 100 |
| Cc1c(C(=O)Nc2ccc3[nH]nc(-c4cnco4)c3c2)ncc(C#N)c1C(F)(F)F [Example 289, 5-Cyano-3-methyl-N-(3-(oxazol-5-yl)-1H-indazol-5-yl)-4-(trifluoromethyl)picolinamide] | < 100 | < 100 |
| Cc1c(C(=O)Nc2ccc3[nH]nc(C#N)c3c2)nc(Cl)c(C#N)c1C [Example 290, 6-Chloro-5-cyano-N-(3-cyano-1H-indazol-5-yl)-3,4-dimethylpicolinamide] | < 100 | < 100 |
| Cc1c(C(=O)Nc2ccc3[nH]nc(C(F)F)c3c2)nc(Cl)c(C#N)c1C [Example 291, 6-Chloro-5-cyano-N-(3-(difluoromethyl)-1H-indazol-5-yl)-3,4-dimethylpicolinamide] | < 100 | < 100 |
| Cc1c(C#N)cnc(C(=O)Nc2ccc3[nH]nc(C(F)F)c3c2)c1C [Example 292, 5-Cyano-N-(3-(difluoromethyl)-1H-indazol-5-yl)-3,4-dimethylpicolinamide] | 1000 to 10000 | 100 to 1000 |
| Cc1c(C(=O)Nc2ccc3[nH]nc(C(F)(F)F)c3c2)nc(Cl)c(C#N)c1C [Example 293, 6-Chloro-5-cyano-3,4-dimethyl-N-(3-(trifluoromethyl)-1H-indazol-5-yl)picolinamide] | < 100 | < 100 |
| Cc1n[nH]c2ccc(NC(=O)c3ncc(C#N)cc3C(C)C)cc12 [Example 294, 5-Cyano-3-isopropyl-N-(3-methyl-1H-indazol-5-yl)picolinamide] | 1000 to 10000 | 100 to 1000 |
| Cc1n[nH]c2ccc(NC(=O)c3cccc(C#N)c3C(C)C)cc12 [Example 295, 3-Cyano-2-isopropyl-N-(3-methyl-1H-indazol-5-yl)benzamide] | 100 to 1000 | < 100 |
| Cc1c(C(=O)Nc2ccc3[nH]nc(S(C)(=O)=O)c3c2)nc(Cl)c(C#N)c1C [Example 296, 6-Chloro-5-cyano-3,4-dimethyl-N-(3-(methylsulfonyl)-1H-indazol-5-yl)picolinamide] | 100 to 1000 | < 100 |
| Cc1c(C#N)cnc(C(=O)Nc2ccc3[nH]nc(C)c3c2)c1C [Example 297, 5-Cyano-3,4-dimethyl-N-(3-methyl-1H-indazol-5-yl)picolinamide] | 100 to 1000 | < 100 |
| Cc1c(C(=O)Nc2ccc3[nH]nc(C)c3c2)nc(Cl)c(C#N)c1C [Example 298, 6-Chloro-5-cyano-3,4-dimethyl-N-(3-methyl-1H-indazol-5-yl)picolinamide] | < 100 | < 100 |

| SMILES | IC50 [1] [nM] | IC50 [2] [nM] |
| --- | --- | --- |
| COc1c(C#N)ccc(C)c1C(=O)Nc1ccc2[nH]nc(C)c2c1 [Example 299, 3-Cyano-2-methoxy-6-methyl-N-(3-methyl-1H-indazol-5-yl)benzamide] | 100 to 1000 | < 100 |
| Cc1c(C#N)cnc(C(=O)Nc2ccc3[nH]nc(Br)c3c2)c1C [Example 300, N-(3-Bromo-1H-indazol-5-yl)-5-cyano-3,4-dimethylpicolinamide] | 100 to 1000 | < 100 |
| Cc1c(C#N)cnc(C(=O)Nc2ccc3[nH]nc(Cl)c3c2)c1C [Example 301, N-(3-Chloro-1H-indazol-5-yl)-5-cyano-3,4-dimethylpicolinamide] | 1000 to 10000 | < 100 |
| Cc1c(C(=O)Nc2ccc3[nH]nc(C)c3c2)nc(Br)c(C#N)c1C [Example 302, 6-Bromo-5-cyano-3,4-dimethyl-N-(3-methyl-1H-indazol-5-yl)picolinamide] | < 100 | < 100 |
| Cc1c(C(=O)Nc2ccc3[nH]nc(C4CC4)c3c2)nc(Cl)c(C#N)c1C [Example 303, 6-Chloro-5-cyano-N-(3-cyclopropyl-1H-indazol-5-yl)-3,4-dimethylpicolinamide] | < 100 | < 100 |
| COc1nc(C(=O)Nc2ccc3[nH]nc(C4CC4)c3c2)c(C)c(C)c1C#N [Example 304, 5-Cyano-N-(3-cyclopropyl-1H-indazol-5-yl)-6-methoxy-3,4-dimethylpicolinamide] | < 100 | < 100 |
| Cc1nc(C(=O)Nc2ccc3[nH]nc(C4CC4)c3c2)c(C)c(C)c1C#N [Example 305, 5-Cyano-N-(3-cyclopropyl-1H-indazol-5-yl)-3,4,6-trimethylpicolinamide] | 100 to 1000 | < 100 |
| Cc1c(C(=O)Nc2ccc3[nH]nc(C)c3c2)ncc(C#N)c1Cl [Example 306, 4-Chloro-5-cyano-3-methyl-N-(3-methyl-1H-indazol-5-yl)picolinamide] | 100 to 1000 | < 100 |
| Cc1cc(C#N)c(Cl)nc1C(=O)Nc1ccc2[nH]nc(C)c2c1 [Example 307, 6-Chloro-5-cyano-3-methyl-N-(3-methyl-1H-indazol-5-yl)picolinamide] | 100 to 1000 | < 100 |
| COc1n[nH]c2ccc(NC(=O)c3nc(Cl)c(C#N)c(C)c3C)cc12 [Example 308, 6-Chloro-5-cyano-N-(3-methoxy-1H-indazol-5-yl)-3,4-dimethylpicolinamide] | < 100 | < 100 |
| N#Cc1cnc(C(=O)Nc2ccc3[nH]nc(-c4cnoc4)c3c2)c(Cl)c1 [Example 309, 3-Chloro-5-cyano-N-(3-(isoxazol-4-yl)-1H-indazol-5-yl)picolinamide] | < 100 | < 100 |
| N#Cc1cnc(C(=O)Nc2ccc3[nH]nc(-c4cnoc4)c3c2)c(C2CC2)c1 [Example 310, 5-Cyano-3-cyclopropyl-N-(3-(isoxazol-4-yl)-1H-indazol-5-yl)picolinamide] | 100 to 1000 | < 100 |
| COc1cccc(-c2n[nH]c3ccc(NC(=O)c4ncc(C#N)cc4C4CC4)cc23)c1 [Example 311, 5-Cyano-3-cyclopropyl-N-(3-(3-methoxyphenyl)-1H-indazol-5-yl)picolinamide] | 100 to 1000 | < 100 |
| N#Cc1cnc(C(=O)Nc2ccc3[nH]nc(-c4cnco4)c3c2)c(C2CC2)c1 [Example 312, 5-Cyano-3-cyclopropyl-N-(3-(oxazol-5-yl)-1H-indazol-5-yl)picolinamide] | 100 to 1000 | < 100 |
| C=C(C)c1cc(C#N)cnc1C(=O)Nc1ccc2[nH]nc(C)c2c1 [Example 313, 5-Cyano-N-(3-methyl-1H-indazol-5-yl)-3-(prop-1-en-2-yl)picolinamide] | 1000 to 10000 | 100 to 1000 |
| Cc1c(C#N)cnc(C(=O)Nc2cc(F)c3[nH]ncc3c2)c1C [Example 314, 5-Cyano-N-(7-fluoro-1H-indazol-5-yl)-3,4-dimethylpicolinamide] | 1000 to 10000 | 100 to 1000 |
| Cc1c(C#N)cnc(C(=O)Nc2ccc3[nH]nc(F)c3c2)c1C [Example 315, 5-Cyano-N-(3-fluoro-1H-indazol-5-yl)-3,4-dimethylpicolinamide] | 1000 to 10000 | < 100 |
| Cc1c(C#N)ccc(F)c1C(=O)Nc1ccc2[nH]nc(C)c2c1 [Example 316, 3-Cyano-6-fluoro-2-methyl-N-(3-methyl-1H-indazol-5-yl)benzamide] | 100 to 1000 | < 100 |
| CSc1n[nH]c2ccc(NC(=O)c3nc(Cl)c(C#N)c(C)c3C)cc12 [Example 317, 6-Chloro-5-cyano-3,4-dimethyl-N-(3-(methylthio)-1H-indazol-5-yl)picolinamide] | < 100 | < 100 |
